Test results as given in PMC5659129, “Determinants of the Inhibition of DprE1 and CYP2C9 by Antitubercular Thiophenes” (Angewandte Chemie (International Ed. in English), 2017).
Converted amounts (≈) assume the structure as drawn.

Tested on: Mtb Y314C mutant strain
Assay type: cell-based, Mycobacterium tuberculosis

SMILES | MIC Y314C [µM]
CCOC(=O)NC(=O)c1ccsc1NC(=O)c1nc2ccccc2s1 [TCA1] | 5.4 ± 0.32 (≈ 2.03 µg/mL)
CCOC(=O)NC(=O)c1ccsc1NC(=O)c1nc2cnccc2s1 [TCA007] | 2.4 ± 0.34 (≈ 0.903 µg/mL)
O=C(Nc1sccc1C(=O)Nc1ncccn1)c1nc2cnccc2s1 [TCA020] | 17 ± 1.1 (≈ 6.5 µg/mL)
CCOC(=O)NC(=O)c1cc(F)sc1NC(=O)c1nc2ccccc2s1 [TCA481] | 1.4 ± 0.086 (≈ 0.551 µg/mL)
Cc1ccnc(NC(=O)c2ccsc2NC(=O)c2nc3cnccc3s2)n1 [TCA787] | 14 ± 1.4 (≈ 5.55 µg/mL)
